Assay results from patent US20250084040A1, “SUBSTITUTED HETEROCYCLES AS c-MYC TARGETING AGENTS” (Northwestern University, priority 2018, published 2025).

Test system: NCI 60 cell panel
Test: NCI 60 Cell One-Dose Screen
Assay type: cell-based, human
Conditions: 1.00E−5 Molar
Experimental: General Description. As of early 2007 all compounds submitted to the NCI 60 Cell screen are tested initially at a single high dose (10^-5 M) in the full NCI 60 cell panel. Only compounds which satisfy pre-determined threshold inhibition criteria in a minimum number of cell lines will progress to the full 5-dose assay. The threshold inhibition criteria for progression to the 5-dose screen was selected to efficiently capture compounds with anti-proliferative activity based on careful analysis of historical DTP screening data. The threshold criteria may be updated as additional data becomes available.
Interpretation of One-Dose Data. The One-dose data will be reported as a mean graph of the percent growth of treated cells and will be similar in appearance to mean graphs from the 5-dose assay. The number reported for the One-dose assay is growth relative to the no-drug control, and relative to the time zero number of cells. This allows detection of both growth inhibition (values between 0 and 100) and lethality (values less than 0). This is the same as for the 5-dose assay, described below. For example, a value of 100 means no growth inhibition. A value of 40 would mean 60% growth inhibition. A value of 0 means no net growth over the course of the experiment. A value of −40 would mean 40% lethality. A value of −100 means all cells are dead. Information from the One-dose mean graph is available for COMPARE analysis.
The human tumor cell lines of the cancer screening panel are grown in RPMI 1640 medium containing 5% fetal bovine serum and 2 mM L-glutamine. For a typical screening experiment, cells are inoculated into 96 well microtiter plates in 100 μL at plating densities ranging from 5,000 to 40,000 cells/well depending on the doubling time of individual cell lines. After cell inoculation, the microtiter plates are incubated at […], 5% CO2, 95% air and 100% relative humidity for 24 h prior to addition of experimental drugs.
After 24 h, two plates of each cell line are fixed in situ with TCA, to represent a measurement of the cell population for each cell line at the time of drug addition (Tz). Experimental drugs are solubilized in dimethyl sulfoxide at 400-fold the desired final maximum test concentration and stored frozen prior to use. At the time of drug addition, an aliquot of frozen concentrate is thawed and diluted to twice the desired final maximum test concentration with complete medium containing 50 µg/ml gentamicin. Additional four, 10-fold or ½ log serial dilutions are made to provide a total of five drug concentrations plus control. Aliquots of 100 μl of these different drug dilutions are added to the appropriate microtiter wells already containing 100 μl of medium, resulting in the required final drug concentrations.
Following drug addition, the plates are incubated for an additional 48 h at 37° C., 5% CO2, 95% air, and 100% relative humidity. For adherent cells, the assay is terminated by the addition of cold TCA. Cells are fixed in situ by the gentle addition of 50 μl of cold 50% (w/v) TCA (final concentration, 10% TCA) and incubated for 60 minutes at 4° C. The supernatant is discarded, and the plates are washed five times with tap water and air dried. Sulforhodamine B (SRB) solution (100 μl) at 0.4% (w/v) in 1% acetic acid is added to each well, and plates are incubated for 10 minutes at room temperature. After staining, unbound dye is removed by washing five times with 1% acetic acid and the plates are air dried. Bound stain is subsequently solubilized with 10 mM trizma base, and the absorbance is read on an automated plate reader at a wavelength of 515 nm. For suspension cells, the methodology is the same except that the assay is terminated by fixing settled cells at the bottom of the wells by gently adding 50 μl of 80% TCA (final concentration, 16% TCA). […]

Cn1nc(C(F)(F)F)cc1-c1ccc(OCc2ccc(Cl)cc2)c(-c2cc(C(F)(F)F)cc(C(F)(F)F)c2)c1O [NSC: D-795899/1]
Growth Percent (786-0 (Renal Cancer)): 2.41% | Growth Percent (A498 (Renal Cancer)): −26.88% | Growth Percent (A549/ATCC (Non-Small Cell Lung Cancer)): 10.52% | Growth Percent (ACHN (Renal Cancer)): 7.22% | Growth Percent (BT-549 (Breast Cancer)): 2.72% | Growth Percent (CCRF-CEM (Leukemia)): 6.82% | Growth Percent (COLO 205 (Colon Cancer)): −90.71% | Growth Percent (DU-145 (Prostate Cancer)): 20.58% | Growth Percent, Delta (Delta of the mean graph): 89.50% | Growth Percent (EKVX (Non-Small Cell Lung Cancer)): 7.70% | Growth Percent (HCC-2998 (Colon Cancer)): 5.78% | Growth Percent (HCT-15 (Colon Cancer)): 7.50% | Growth Percent (HCT-116 (Colon Cancer)): 3.65% | Growth Percent (HL-60(TB) (Leukemia)): −39.89% | Growth Percent (HOP-62 (Non-Small Cell Lung Cancer)): −9.87% | Growth Percent (HOP-92 (Non-Small Cell Lung Cancer)): −20.08% | Growth Percent (HS 578T (Breast Cancer)): 4.39% | Growth Percent (HT29 (Colon Cancer)): 3.77% | Growth Percent (IGROV1 (Ovarian Cancer)): 31.40% | Growth Percent (K-562 (Leukemia)): 1.63% | Growth Percent (KM12 (Colon Cancer)): 5.04% | Growth Percent (LOX IMVI (Melanoma)): 6.23% | Growth Percent (M14 (Melanoma)): 6.30% | Growth Percent (MALME-3M (Melanoma)): −15.91% | Growth Percent (MCF7 (Breast Cancer)): 3.01% | Growth Percent (MDA-MB-231/ATCC (Breast Cancer)): −31.51% | Growth Percent (MDA-MB-435 (Melanoma)): 11.38% | Growth Percent (MDA-MB-468 (Breast Cancer)): -5.00% | Growth Percent (MOLT-4 (Leukemia)): −11.7% | Growth Percent, Mean (Mean over the cell panel): -1.21% | Growth Percent (NCI-H23 (Non-Small Cell Lung Cancer)): 0.56% | Growth Percent (NCI-H226 (Non-Small Cell Lung Cancer)): 13.90% | Growth Percent (NCI-H322M (Non-Small Cell Lung Cancer)): 5.67% | Growth Percent (NCI-H460 (Non-Small Cell Lung Cancer)): −10.44% | Growth Percent (NCI-H522 (Non-Small Cell Lung Cancer)): −9.19% | Growth Percent (NCI/ADR-RES (Ovarian Cancer)): 1.98% | Growth Percent (OVCAR-3 (Ovarian Cancer)): 7.02% | Growth Percent (OVCAR-4 (Ovarian Cancer)): 20.71% | Growth Percent (OVCAR-5 (Ovarian Cancer)): 29.10% | Growth Percent (OVCAR-8 (Ovarian Cancer)): 8.36% | Growth Percent (PC-3 (Prostate Cancer)): 10.73% | Growth Percent (RPMI-8226 (Leukemia)): −14.54% | Growth Percent (RXF 393 (Renal Cancer)): −14.51% | Growth Percent, Range (Range over the cell panel): 122.11% | Growth Percent (SF-268 (CNS Cancer)): 16.59% | Growth Percent (SF-295 (CNS Cancer)): −22.60% | Growth Percent (SF-539 (CNS Cancer)): 2.13% | Growth Percent (SK-MEL-2 (Melanoma)): −33.97% | Growth Percent (SK-MEL-28 (Melanoma)): 28.00% | Growth Percent (SK-MIEL-5 (Melanoma)): −36.59% | Growth Percent (SK-OV-3 (Ovarian Cancer)): −13.54% | Growth Percent (SN12C (Renal Cancer)): 7.93% | Growth Percent (SNB-19 (CNS Cancer)): 22.58% | Growth Percent (SNB-75 (CNS Cancer)): 4.92% | Growth Percent (SR (Leukemia)): −4.24% | Growth Percent (SW-620 (Colon Cancer)): 13.14% | Growth Percent (T-47D (Breast Cancer)): −11.64% | Growth Percent (TK-10 (Renal Cancer)): 9.29% | Growth Percent (U251 (CNS Cancer)): 6.17% | Growth Percent (UACC-62 (Melanoma)): 3.02% | Growth Percent (UACC-257 (Melanoma)): −7.16% | Growth Percent (UO-31 (Renal Cancer)): −1.27%
